Results: US20200255478A1, “NOVEL COMPOUNDS ACTIVATING THE NRF2 PATHWAY” (Almirall, S.A., priority 2017, published 2020)
Where two headings read alike, the source gives them in different places. Starred links: 1 amine or outer side, 2 acyl side, 3 side chain; linkers in the order of their positions; H or OH if unused. Positions of bridges follow the written chain, without caps; N, C: chain ends. Non-standard residues stand in square brackets, D forms with d. Residues, ends and D or L forms follow the SMILES beside them. *: point of attachment. Trp(2-yl) = O=C([C@H](Cc1c([*:3])[nH]c2ccccc12)N[*:1])[*:2]; mXylylene = c1cc(C[*:1])cc(C[*:2])c1; oXylylene = c1ccc(C[*:2])c(C[*:1])c1; X6 = c1ccc2nc(C[*:2])c(C[*:1])nc2c1; Stearoyl = CCCCCCCCCCCCCCCCCC(=O)*; βAla = NCCC(=O)O

Target: Keap1-Maltose Binding Protein (MBP tag) (Homo sapiens, UniProt Q14145)
Assay: Nrf2-Keap1 HTRF (TR-FRET) binding assay: displacement of biotinylated ETGE peptide from Keap1-MBP
[1] = HTRF (TR-FRET), displacement of ETGE-biotin from Keap1-MBP, values banded into grades, read-out: Binding (IC50) ETGE-Keap1

Chain of Keap1-Maltose Binding Protein (MBP tag) (Q14145 whole entry): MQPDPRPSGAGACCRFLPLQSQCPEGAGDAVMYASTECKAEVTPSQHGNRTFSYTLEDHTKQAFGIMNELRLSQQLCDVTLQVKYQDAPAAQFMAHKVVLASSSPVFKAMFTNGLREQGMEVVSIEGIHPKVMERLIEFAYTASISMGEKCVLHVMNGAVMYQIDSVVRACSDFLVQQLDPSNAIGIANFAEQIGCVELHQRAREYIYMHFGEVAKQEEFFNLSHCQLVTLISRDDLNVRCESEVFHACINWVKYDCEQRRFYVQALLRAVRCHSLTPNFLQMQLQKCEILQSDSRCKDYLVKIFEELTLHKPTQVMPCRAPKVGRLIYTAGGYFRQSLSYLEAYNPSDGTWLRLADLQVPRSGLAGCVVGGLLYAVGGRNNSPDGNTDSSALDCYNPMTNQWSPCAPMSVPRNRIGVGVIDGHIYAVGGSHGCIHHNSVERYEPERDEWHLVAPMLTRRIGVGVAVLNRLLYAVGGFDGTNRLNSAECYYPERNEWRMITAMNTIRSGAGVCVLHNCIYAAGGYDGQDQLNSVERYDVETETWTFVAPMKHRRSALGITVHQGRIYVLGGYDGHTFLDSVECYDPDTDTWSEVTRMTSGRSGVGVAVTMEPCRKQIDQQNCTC

Row | Structure (SMILES) | IC50 [1] [nM] | IC50 [nM]
1 | CC(C)C[C@H](NC(=O)[C@@H]1CSCc2cc3ccccc3cc2CSC[C@H](NC(=O)[C@H](CCC(N)=O)NC(=O)[C@@H](N)CC(C)C)C(=O)N[C@@H](CC(=O)O)C(=O)N2CCC[C@H]2C(=O)N[C@@H](CCC(=O)O)C(=O)N[C@@H]([C@@H](C)O)C(=O)NCC(=O)N[C@@H](CCC(=O)O)C(=O)N1)C(=O)N1CCC[C@H]1C(=O)NCCC(=O)N[C@@H](CCCNC(=N)N)C(=O)N[C@@H](CCCNC(=N)N)C(=O)N[C@@H](CCCNC(=N)N)C(=O)N[C@@H](CCCNC(=N)N)C(=O)N[C@@H](CCCNC(=N)N)C(=O)N[C@@H](CCCNC(=N)N)C(=O)N[C@@H](CCCNC(=N)N)C(=O)N[C@@H](CCCNC(=N)N)C(=O)N[C@@H](CCCNC(=N)N)C(=O)N[C@@H](CCCNC(=N)N)C(N)=O [Example 69, {[H-Leu-G1n-Cys(&^1)-Asp-Pro-Glu-Thr-Gly-Glu-Cys(&^2)-Leu-Pro-βAla-Arg10-NH2][&^1(naphthalene)2,3-diyldimethylene&^2]}] | 1 to 100 | –
2 | CC(C)C[C@H](NC(=O)[C@@H]1CSCc2cccc(c2)CSC[C@H](NC(=O)[C@H](CCC(N)=O)NC(=O)[C@@H](N)CC(C)C)C(=O)N[C@@H](CC(=O)O)C(=O)N[C@@H](CCC(=O)O)C(=O)N[C@@H](CCC(=O)O)C(=O)N[C@@H]([C@@H](C)O)C(=O)NCC(=O)N[C@@H](CCC(=O)O)C(=O)N1)C(=O)N1CCC[C@H]1C(=O)NCCC(=O)N[C@@H](CCCNC(=N)N)C(=O)N[C@@H](CCCCN)C(=O)N[C@@H](CCCCN)C(=O)N[C@@H](CCCNC(=N)N)C(=O)N[C@@H](CCCNC(=N)N)C(=O)N[C@@H](CCC(N)=O)C(=O)N[C@@H](CCCNC(=N)N)C(=O)N[C@@H](CCCNC(=N)N)C(=O)N[C@@H](CCCNC(=N)N)C(N)=O [Example 9] | 1 to 100 | –
3 | CCCCCCCCCCCCCC(=O)N[C@H]1C[C@H]2C(=O)N[C@@H](CCC(N)=O)C(=O)N[C@H]3CSCc4ccccc4CSC[C@H](NC(=O)[C@H](CCC(=O)O)NC(=O)CNC(=O)[C@H]([C@@H](C)O)NC(=O)[C@H](CCC(=O)O)NC(=O)[C@@H]4CCCN4C(=O)[C@H](CC(=O)O)NC3=O)C(=O)N[C@@H](CC(C)C)C(=O)N3CCC[C@@H]3C(=O)N2C1 [Example 80, {[&^1Pro((4S)-NH-Miristoyl)-Gln-Cys(&^2)-Asp-Pro-Glu-Thr-Gly-Glu-Cys(&^3)-Leu-D-Pro&^1][&^2(1,2-phenylenediyl)dimethylene&^3]}] | – | < 1
4 | CC(=O)N[C@H]1Cc2c([nH]c3ccccc23)SC[C@@H](C(N)=O)NC(=O)[C@H](CCC(=O)O)NC(=O)CNC(=O)[C@H]([C@@H](C)O)NC(=O)[C@H](CCC(=O)O)NC(=O)[C@H](CCC(=O)O)NC(=O)[C@H](CC(=O)O)NC1=O [Example 7, Acetyl-Trp(indol-2-yl-&^1)-Asp-Glu-Glu-Thr-Gly-Glu-Cys(&^1)-NH2] (Ac-[Trp(2-yl)]DEETGEC-NH2; thioether 1-8) | – | 1 to 100
5 | CC(C)C[C@H](NC(=O)[C@@H]1CSCc2cccc(c2)CSC[C@H](NC(=O)[C@H](CCC(N)=O)NC(=O)[C@@H](N)CC(C)C)C(=O)N[C@@H](CC(=O)O)C(=O)N[C@@H](C)C(=O)N[C@@H](CCC(=O)O)C(=O)N[C@@H]([C@@H](C)O)C(=O)NCC(=O)N[C@@H](CCC(=O)O)C(=O)N1)C(=O)N1CCC[C@H]1C(=O)NCCC(=O)N[C@@H](Cc1ccc(O)cc1)C(=O)N[C@@H](C)C(=O)N[C@@H](CCCNC(=N)N)C(=O)N[C@@H](C)C(=O)N[C@@H](C)C(=O)N[C@@H](C)C(=O)N[C@@H](CCCNC(=N)N)C(=O)N[C@@H](CCC(N)=O)C(=O)N[C@@H](C)C(=O)N[C@@H](CCCNC(=N)N)C(=O)N[C@@H](C)C(N)=O [Example 15] (H-LQCDAETGECLP[βAla]YARAAARQARA-NH2; linker 3-10 via mXylylene) | 1 to 100 | –
6 | CCCCCCCCCCCCCCCCCC(=O)N[C@H]1C[C@H]2C(=O)N[C@@H](CCC(N)=O)C(=O)N[C@H]3CSCc4ccccc4CSC[C@H](NC(=O)[C@H](CCC(=O)O)NC(=O)CNC(=O)[C@H]([C@@H](C)O)NC(=O)[C@H](CCC(=O)O)NC(=O)[C@@H]4C[C@H](N)CN4C(=O)[C@H](CC(=O)O)NC3=O)C(=O)N[C@@H](CC(C)C)C(=O)N3CCC[C@@H]3C(=O)N2C1 [Example 73, {[&^1Pro((4S)-NH-Stearyl)-Gln-Cys(&^2)-Asp-Pro((4S)-NH2)-Glu-Thr-Gly-Glu-Cys(&^3)-Leu-D-Pro&^1][&^2(1,2-phenylenediyl)dimethylene&^3]}] | – | 1 to 100
7 | CC(=O)N[C@H]1CSCc2ccccc2CSC[C@@H](C(N)=O)NC(=O)[C@H](CCC(=O)O)NC(=O)CNC(=O)[C@H]([C@@H](C)O)NC(=O)[C@H](CCC(=O)O)NC(=O)[C@H](C)N(C)C(=O)[C@H](CC(=O)O)NC1=O [Example 43, {[Acetyl-Cys(&^1)-Asp-MeAla-Glu-Thr-Gly-Glu-Cys(&^2)-NH2][&^1(1,2-phenylenediyl)dimethylene&^2]}] | 1 to 100 | –
8 | CCCCCCCC/C=C/CCCCCCCC(=O)N[C@H]1C[C@H]2C(=O)N[C@@H](CCC(N)=O)C(=O)N[C@H]3CSCc4ccccc4CSC[C@H](NC(=O)[C@H](CCC(=O)O)NC(=O)CNC(=O)[C@H]([C@@H](C)O)NC(=O)[C@H](CCC(=O)O)NC(=O)[C@@H]4CCCN4C(=O)[C@H](CC(=O)O)NC3=O)C(=O)N[C@@H](CC(C)C)C(=O)N3CCC[C@@H]3C(=O)N2C1 [Example 87, {[&^1Pro((4S)-NH-elaidyl)-Gln-Cys(&^2)-Asp-Pro-Glu-Thr-Gly-Glu-Cys(&^3)-Leu-D-Pro&^1][&^2(1,2-phenylenediyl)dimethylene&^3]}] | – | 1 to 100
9 | CCCCCCCCCCCCCCCCCC(=O)N1CCC[C@H]1C(=O)N[C@@H](CCC(N)=O)C(=O)N[C@H]1CSCc2ccccc2CSC[C@@H](C(=O)N[C@@H](CC(C)C)C(=O)N2CCC[C@@H]2C(N)=O)NC(=O)[C@H](CCC(=O)O)NC(=O)CNC(=O)[C@H]([C@@H](C)O)NC(=O)[C@H](CCC(=O)O)NC(=O)[C@@H]2CCCN2C(=O)[C@H](CC(=O)O)NC1=O [Example 76, {[Stearyl-Pro-Gln-Cys(&^1)-Asp-Pro-Glu-Thr-Gly-Glu-Cys(&^2)-Leu-D-Pro-NH2][&^1(1,2-phenylenediyl)dimethylene^2]}] (Stearoyl-PQCDPETGECL[dP]-NH2; linker 3-10 via oXylylene) | – | 1 to 100
10 | CCCCCCCCCCCCCCCCCC(=O)NCCC(=O)N[C@@H](CC(C)C)C(=O)N[C@@H](CCC(N)=O)C(=O)N[C@H]1CSCc2cccc(c2)CSC[C@@H](C(=O)N[C@@H](CC(C)C)C(=O)N2CCC[C@H]2C(=O)O)NC(=O)[C@H](CCC(=O)O)NC(=O)CNC(=O)[C@H]([C@@H](C)O)NC(=O)[C@H](CCC(=O)O)NC(=O)[C@@H]2CCCN2C(=O)[C@H](CC(=O)O)NC1=O [Example 37, {[Stearyl-βA1a-Leu-Gln-Cys(&^1)-Asp-Pro-Glu-Thr-Gly-Glu-Cys(&^2)-Leu-Pro-OH][&^1(1,3-phenylenediyl)dimethylene&^2]}] ({Stearoyl-βAla}-LQCDPETGECLP-OH; linker 3-10 via mXylylene) | 1 to 100 | –
11 | CC(C)C[C@H](NC(=O)[C@@H]1CSc2[nH]c3ccccc3c2C[C@H](NC(=O)[C@H](CCC(N)=O)NC(=O)[C@@H](N)CC(C)C)C(=O)N[C@@H](CC(=O)O)C(=O)N[C@@H](CCC(=O)O)C(=O)N[C@@H](CCC(=O)O)C(=O)N[C@@H]([C@@H](C)O)C(=O)NCC(=O)N[C@@H](CCC(=O)O)C(=O)N1)C(=O)N1CCC[C@H]1C(=O)NCCC(=O)N[C@@H](CCCNC(=N)N)C(=O)N[C@@H](CCCCN)C(=O)N[C@@H](CCCCN)C(=O)N[C@@H](CCCNC(=N)N)C(=O)N[C@@H](CCCNC(=N)N)C(=O)N[C@@H](CCC(N)=O)C(=O)N[C@@H](CCCNC(=N)N)C(=O)N[C@@H](CCCNC(=N)N)C(=O)N[C@@H](CCCNC(=N)N)C(N)=O [Example 8] | 1 to 100 | –
12 | CC(C)C[C@@H]1NC(=O)[C@@H]2CCCN2C(=O)[C@H](CC(C)C)NC(=O)[C@@H]2CSCc3cccc(c3)CSC[C@H](NC(=O)[C@H](CCC(N)=O)NC1=O)C(=O)N[C@@H](CC(=O)O)C(=O)N[C@@H](C)C(=O)N[C@@H](CCC(=O)O)C(=O)N[C@@H]([C@@H](C)O)C(=O)NCC(=O)N[C@@H](CCC(=O)O)C(=O)N2 [Example 17] (cyclo(AETGECLPLQCD); linker 6-11 via mXylylene) | – | 1 to 100
13 | CCCCCCCCCCCCCCCCCC(=O)NCCC(=O)N[C@@H](CCCCN)C(=O)N[C@@H](CCCCN)C(=O)N[C@H]1CSCc2ccccc2CSC[C@@H](C(=O)N[C@@H](CCCCN)C(=O)N[C@@H](CCCCN)C(N)=O)NC(=O)[C@H](CCC(=O)O)NC(=O)CNC(=O)[C@H]([C@@H](C)O)NC(=O)[C@H](CCC(=O)O)NC(=O)[C@@H]2CCCN2C(=O)[C@H](CC(=O)O)NC1=O [Example 53, {[Stearyl-βAla-Lys-Lys-Cys(&^1)-Asp-Pro-Glu-Thr-Gly-Glu-Cys(&^2)-Lys-Lys-NH2][&^1(1,2-phenylenediyl)dimethylene&^2]}] ({Stearoyl-βAla}-KKCDPETGECKK-NH2; linker 3-10 via oXylylene) | 1 to 100 | –
14 | CC(C)C[C@@H]1NC(=O)[C@@H]2CCCN2C(=O)[C@H](CC(C)C)NC(=O)[C@@H]2CSc3[nH]c4ccccc4c3C[C@H](NC(=O)[C@H](CCC(N)=O)NC1=O)C(=O)N[C@@H](CC(=O)O)C(=O)N[C@@H](CCC(=O)O)C(=O)N[C@@H](CCC(=O)O)C(=O)N[C@@H]([C@@H](C)O)C(=O)NCC(=O)N[C@@H](CCC(=O)O)C(=O)N2 [Example 11, &^1Leu-Gln-Trp(indol-2-yl-&^2)-Asp-Glu-Glu-Thr-Gly-Glu-Cys(&^2)-Leu-Pro&^1] (cyclo(CLPLQ[Trp(2-yl)]DEETGE); thioether 1-6) | – | 1 to 100
15 | CCCCCCCCCCCCCCCCCC(=O)NCCC(=O)N(C)[C@@H](CC(C)C)C(=O)N[C@@H](CCC(N)=O)C(=O)N[C@H]1CSCc2ccccc2CSC[C@@H](C(=O)N[C@@H](CC(C)C)C(=O)N2CCC[C@H]2C(N)=O)NC(=O)[C@H](CCC(=O)O)NC(=O)CNC(=O)[C@H]([C@@H](C)O)NC(=O)[C@H](CCC(=O)O)NC(=O)[C@@H]2CCCN2C(=O)[C@H](CC(=O)O)NC1=O [Example 45, {[Stearyl-βAla-MeLeu-Gln-Cys(&^1)-Asp-Pro-Glu-Thr-Gly-Glu-Cys(&^2)-Leu-Pro-NH2][&^1(1,2-phenylenediyl)dimethylene&^2]}] | 1 to 100 | –
16 | CC(=O)N[C@H]1CSCc2nc3ccccc3nc2CSC[C@@H](C(N)=O)NC(=O)[C@H](CCC(=O)O)NC(=O)CNC(=O)[C@H]([C@@H](C)O)NC(=O)[C@H](CCC(=O)O)NC(=O)[C@H](CCC(=O)O)NC(=O)[C@H](CC(=O)O)NC1=O [Example 26, {[Acetyl-Cys(&^1)-Asp-Glu-Glu-Thr-Gly-Glu-Cys(&^2)-NH2][&^1(quinoxaline)2,3-diyldimethylene&^2]}] (Ac-CDEETGEC-NH2; linker 1-8 via X6) | 1 to 100 | –
